Patent publication US20120270929A1, “MODULATION OF TTC39 EXPRESSION TO INCREASE HDL” (ISIS Pharmaceuticals, Inc., priority 2009, published 2012)
Oligonucleotides are written 5' to 3', each unit as a sugar letter and its base; * is a phosphorothioate linkage, no mark a phosphodiester; rarer units and linkages stand in square brackets, end groups in braces. Plain capitals give the bases only. e = 2'-O-(2-methoxyethyl) (MOE); [5mC] = 5-methylcytosine; d = 2'-deoxy (DNA)

Tests used:
murine TTC39A mRNA [1] = experiment: Antisense inhibition of mouse TTC39A in b.END cells, single dose; type: cell-based; settings: 70 nM, cytofectin, ~24 h, vs untreated control
Method: Antisense oligonucleotides were designed targeting a TTC39A nucleic acid and were tested for their effects on TTC39A mRNA in vitro. Cultured b.END cells at a density of 4,000 cells per well were transfected using cytofectin reagent with 70 nM antisense oligonucleotide. After a treatment period of approximately 24 hours, RNA was isolated from the cells and TTC39A mRNA levels were measured by quantitative real-time PCR. Mouse primer probe set RTS3262 (forward sequence TGTGCGTCATGCTGTTGCT, designated herein as SEQ ID NO: 113; reverse sequence […], designated herein as SEQ ID NO: 114; probe sequence […], designated herein as SEQ ID NO: 115). TTC39A mRNA levels were adjusted according to total RNA content, as measured by RIBOGREEN®. Results are presented as percent inhibition of TTC39A, relative to untreated control cells.
The chimeric antisense oligonucleotides targeting TTC39A were designed as 5-10-5 MOE gapmers. The gapmers are 20 nucleotides in length, wherein the central gap segment is comprised of ten 2′-deoxynucleotides and is flanked on both sides (in the 5′ and 3′ directions) by wings comprising five nucleotides each. Each nucleotide in the 5′ wing segment and each nucleotide in the 3′ wing segment has a 2′-MOE modification. The internucleoside linkages throughout each gapmer are phosphorothioate (P═S) linkages. All cytosine residues throughout each gapmer are 5-methylcytosines. “Mouse Target start site” indicates the 5′-most nucleotide to which the gapmer is targeted in a mouse nucleic acid sequence.

murine TTC39A mRNA [2] = experiment: Dose-dependent antisense inhibition of murine TTC39A in b.END cells; type: cell-based, mouse; settings: ~16 h; for IC50: cytofectin
Method: Cells were plated at a density of 3,500 cells per well and transfected using cytofectin reagent with 4.375 nM, 8.75 nM, 17.5 nM, 35 nM, 70 nM, and 140 nM concentrations of antisense oligonucleotide, as specified in Table 28. After a treatment period of approximately 16 hours, RNA was isolated from the cells and TTC39A mRNA levels were measured by quantitative real-time PCR. Murine primer probe set RTS3262 was used to measure mRNA levels. TTC39A mRNA levels were adjusted according to total RNA content, as measured by RIBOGREEN®. Results are presented as percent inhibition of TTC39A, relative to untreated control cells.

[3] = test system: Mevalonate (diphospho) decarboxylase (Mvd) mRNA; experiment: PCR microarray analysis of liver, LDLr-/- mice: Mvd; type: in vivo, mouse; settings: 50 mg/kg, 6 weeks
Method: (§1) Four groups of five male mice each were injected with a total of 1.5, 5, 15, or 50 mg/kg/week of ISIS 447118 for 6 weeks. A group of five mice was injected with a total of 50 mg/kg/week of control oligonucleotide ISIS 141923 ([…], designated herein as SEQ ID NO: 112, which has no known murine target) for 6 weeks. A control group of five mice was injected with phosphate buffered saline (PBS) twice a week for 6 weeks. Plasma samples were obtained before the start of treatment, at week 3 and at week 6. At the end of the treatment period, the mice were euthanized. Plasma and tissue samples were obtained for further analysis.
(§2) Liver samples from the mice groups were analyzed using a commercial kit for PCR microarray analysis (SA Biosciences Corp., MD), according to the manufacturer's instructions. Genes involved in lipoprotein and cholesterol metabolism were compared with the PBS control.

[4] = test system: Farnesyl diphosphate synthetase (Fdps) mRNA; experiment: PCR microarray analysis of liver, LDLr-/- mice: Fdps; type: in vivo, mouse; settings: 50 mg/kg, 6 weeks
Method: as §1, §2

[5] = test system: Oxysterol binding protein-like 5 (Osbpl5) mRNA; experiment: PCR microarray analysis of liver, LDLr-/- mice: Osbpl5; type: in vivo, mouse; settings: 50 mg/kg, 6 weeks
Method: as §1, §2

[6] = Plasma cholesterol and triglycerides in LDLr-/- mice; type: in vivo, mouse; settings: 50 mg/kg/week
Method: The LDLr knockout mice model is a model for familial hypercholesterolemia developed by Ishibashi et al (J Clin Invest 1993; 92: 883-893). On a normal chow diet, the mice have an average total cholesterol of 250 mg/dL due to increases in LDL and VLDL cholesterol. This model is therefore highly susceptible to atherosclerosis (Ishibashi et al Proc Natl Acad Sci USA 1994; 91: 4431-4435).
as §1
To investigate the effect of inhibition of TTC39B on triglycerides and cholesterol levels in the plasma, samples were collected on weeks 0, 3, and 6, and total plasma cholesterol, LDL cholesterol, HDL cholesterol, and triglycerides were analyzed on an Olympus AU400e Analyzer.

[7] = test system: Sterol O-acyltransferase 2 (Soat2) mRNA; experiment: PCR microarray analysis of liver, LDLr-/- mice: Soat2; type: in vivo, mouse; settings: 50 mg/kg, 6 weeks
Method: as §1, §2

[8] = test system: Low density lipoprotein receptor (Ldlr) mRNA; experiment: PCR microarray analysis of liver, LDLr-/- mice: Ldlr; type: in vivo, mouse; settings: 50 mg/kg, 6 weeks
Method: as §1, §2

[9] = test system: Insulin induced gene 1 (Insig1) mRNA; experiment: PCR microarray analysis of liver, LDLr-/- mice: Insig1; type: in vivo, mouse; settings: 50 mg/kg, 6 weeks
Method: as §1, §2

Stabilin 1 (Stab1) mRNA = experiment: PCR microarray analysis of liver, LDLr-/- mice: Stab1; type: in vivo, mouse; settings: 50 mg/kg, 6 weeks
Method: as §1, §2

[10] = test system: Proprotein convertase subtilisin/kexin type 9 (Pcsk9) mRNA; experiment: PCR microarray analysis of liver, LDLr-/- mice: Pcsk9; type: in vivo, mouse; settings: 50 mg/kg, 6 weeks
Method: as §1, §2

[11] = test system: Apolipoprotein A-IV (ApoA4) mRNA; experiment: PCR microarray analysis of liver, LDLr-/- mice: ApoA4; type: in vivo, mouse; settings: 50 mg/kg, 6 weeks
Method: as §1, §2

Sequence: AGTTGGGACCCAGAAGGCCT (eA*eG*eT*eT*eG*dG*dG*dA*d[5mC]*d[5mC]*d[5mC]*dA*dG*dA*dA*eG*eG*e[5mC]*e[5mC]*eT; antisense) [ISIS 474497]
- % inhibition of murine TTC39A mRNA (murine TTC39A mRNA [1]): 94%
- percent inhibition of TTC39A mRNA (murine TTC39A mRNA [2]; 4.375 nM): 8%
- percent inhibition of TTC39A mRNA (murine TTC39A mRNA [2]; 8.75 nM): 5%
- percent inhibition of TTC39A mRNA (murine TTC39A mRNA [2]; 17.5 nM): 21%
- percent inhibition of TTC39A mRNA (murine TTC39A mRNA [2]; 35.0 nM): 29%
- percent inhibition of TTC39A mRNA (murine TTC39A mRNA [2]; 70.0 nM): 53%
- percent inhibition of TTC39A mRNA (murine TTC39A mRNA [2]; 140.0 nM): 77%
- IC50 (murine TTC39A mRNA [2]): 72 nM

Sequence: CACCTGGGTTTGAGGTAGCT (e[5mC]*eA*e[5mC]*e[5mC]*eT*dG*dG*dG*dT*dT*dT*dG*dA*dG*dG*eT*eA*eG*e[5mC]*eT; antisense) [ISIS 474498]
- % inhibition of murine TTC39A mRNA (murine TTC39A mRNA [1]): 95%
- percent inhibition of TTC39A mRNA (murine TTC39A mRNA [2]; 4.375 nM): 0%
- percent inhibition of TTC39A mRNA (murine TTC39A mRNA [2]; 8.75 nM): 6%
- percent inhibition of TTC39A mRNA (murine TTC39A mRNA [2]; 17.5 nM): 33%
- percent inhibition of TTC39A mRNA (murine TTC39A mRNA [2]; 35.0 nM): 55%
- percent inhibition of TTC39A mRNA (murine TTC39A mRNA [2]; 70.0 nM): 64%
- percent inhibition of TTC39A mRNA (murine TTC39A mRNA [2]; 140.0 nM): 80%
- IC50 (murine TTC39A mRNA [2]): 35 nM

Sequence: CCGCACTTTGATGCCGCCCT (e[5mC]*e[5mC]*eG*e[5mC]*eA*d[5mC]*dT*dT*dT*dG*dA*dT*dG*d[5mC]*d[5mC]*eG*e[5mC]*e[5mC]*e[5mC]*eT; antisense) [ISIS 474435]
- % inhibition of murine TTC39A mRNA (murine TTC39A mRNA [1]): 94%
- percent inhibition of TTC39A mRNA (murine TTC39A mRNA [2]; 4.375 nM): 0%
- percent inhibition of TTC39A mRNA (murine TTC39A mRNA [2]; 8.75 nM): 2%
- percent inhibition of TTC39A mRNA (murine TTC39A mRNA [2]; 17.5 nM): 11%
- percent inhibition of TTC39A mRNA (murine TTC39A mRNA [2]; 35.0 nM): 8%
- percent inhibition of TTC39A mRNA (murine TTC39A mRNA [2]; 70.0 nM): 52%
- percent inhibition of TTC39A mRNA (murine TTC39A mRNA [2]; 140.0 nM): 76%
- IC50 (murine TTC39A mRNA [2]): 67 nM

Sequence: CCTTCCCTGAAGGTTCCTCC (chemistry not given here) [ISIS 141923, reference compound]
- Mvd fold increase/decrease relative to PBS group [3]: 1.25 fold
- Fdps fold increase/decrease relative to PBS group [4]: 1.21 fold
- Osbpl5 fold increase/decrease relative to PBS group [5]: 1.21 fold
- HDL cholesterol % increase on week 6 (% change over baseline) [6]: 43%
- HDL cholesterol levels ([6]; Week 0 (before treatment)): 76 mg/dL
- LDL cholesterol levels ([6]; Week 0 (before treatment)): 100 mg/dL
- total cholesterol levels ([6]; Week 0 (before treatment)): 206 mg/dL
- triglyceride levels ([6]; Week 0 (before treatment)): 97 mg/dL
- HDL cholesterol levels ([6]; Week 3): 78 mg/dL
- LDL cholesterol levels ([6]; Week 3): 100 mg/dL
- total cholesterol levels ([6]; Week 3): 204 mg/dL
- triglyceride levels ([6]; Week 3): 116 mg/dL
- HDL cholesterol levels ([6]; Week 6): 108 mg/dL
- LDL cholesterol levels ([6]; Week 6): 112 mg/dL
- total cholesterol levels ([6]; Week 6): 227 mg/dL
- triglyceride levels ([6]; Week 6): 143 mg/dL
- Soat2 fold increase/decrease relative to PBS group [7]: 0.95 fold
- Ldlr fold increase/decrease relative to PBS group [8]: 1.36 fold
- Insig1 fold increase/decrease relative to PBS group [9]: 1.13 fold
- Stab1 fold increase/decrease relative to PBS group (Stabilin 1 (Stab1) mRNA): 1.12 fold
- Pcsk9 fold increase/decrease relative to PBS group [10]: 1.09 fold
- ApoA4 fold increase/decrease relative to PBS group [11]: 0.87 fold

Sequence: CGCCTGGACTTCCGGATAGC (e[5mC]*eG*e[5mC]*e[5mC]*eT*dG*dG*dA*d[5mC]*dT*dT*d[5mC]*d[5mC]*dG*dG*eA*eT*eA*eG*e[5mC]; antisense) [ISIS 474369]
- % inhibition of murine TTC39A mRNA (murine TTC39A mRNA [1]): 96%
- percent inhibition of TTC39A mRNA (murine TTC39A mRNA [2]; 4.375 nM): 0%
- percent inhibition of TTC39A mRNA (murine TTC39A mRNA [2]; 8.75 nM): 14%
- percent inhibition of TTC39A mRNA (murine TTC39A mRNA [2]; 17.5 nM): 22%
- percent inhibition of TTC39A mRNA (murine TTC39A mRNA [2]; 35.0 nM): 48%
- percent inhibition of TTC39A mRNA (murine TTC39A mRNA [2]; 70.0 nM): 62%
- percent inhibition of TTC39A mRNA (murine TTC39A mRNA [2]; 140.0 nM): 82%
- IC50 (murine TTC39A mRNA [2]): 44 nM
